# Laboratory results as given in ChEMBL document CHEMBL1287680, “C-11 diamino cryptolepine derivatives NSC748392, NSC748393, and NSC748394: anticancer profile and G-quadruplex stabilization” (Bioorg Med Chem Lett, 2010).
# Columns and labels:
# [1] = test system: Vero; assay: cells; conditions: Chlorocebus sabaeus, 48 h
# Description: Cytotoxicity against african green monkey Vero cells after 48 hrs by MTT assay
# [2] = physchem
# Description: Dissociation constant, pKa of the compound by UV-visible spectroscopy
Compound,IC50 [1] [nM],pKa [2]
C[n+]1c2ccccc2c(Nc2ccccc2)c2[nH]c3ccccc3c21,600,10.6
CN(C)CCCNc1c2ccccc2[n+](C)c2c1[nH]c1ccccc12,2200,11.9
CCN(CC)CCCNc1c2ccc(Cl)cc2[n+](C)c2c1[nH]c1ccccc12,1300,11.2
CCN(CC)Cc1ccc(Nc2c3ccccc3[n+](C)c3c2[nH]c2ccccc23)cc1O,800,10.8
CC(CN(C)C)Nc1c2ccccc2[n+](C)c2c1[nH]c1ccccc12 (configuration not stated),3000,11.6
CCN(CC)CCCNc1c2ccccc2[n+](C)c2c1[nH]c1ccccc12,2500,11.6
C[n+]1c2cc(Cl)ccc2c(NC2CCNCC2)c2[nH]c3ccccc3c21,4400,11.1
CN(C)CC(C)(C)CNc1c2ccccc2[n+](C)c2c1[nH]c1ccccc12,3000,11.7
C[n+]1c2ccccc2c(NCCCN2CCCCC2)c2[nH]c3ccccc3c21,2000,11.7
CCN(CC)c1c2ccccc2[n+](C)c2c1[nH]c1ccccc12,3000,–
CCN(CC)CCCC(C)Nc1c2ccccc2[n+](C)c2c1[nH]c1ccccc12 (configuration not stated),13000,11.4
CC(C)CN1CCC(Nc2c3ccccc3[n+](C)c3c2[nH]c2ccccc23)CC1,5000,11.6
C[n+]1c2cc(Cl)ccc2c(NC2CCNCC2)c2[nH]c3cc(Cl)ccc3c21,800,10.3
C[n+]1c2ccccc2c(NC2CCN(Cc3ccccc3)CC2)c2[nH]c3ccccc3c21,2200,11.5
C[n+]1c2ccccc2c(NC2CCN(Cc3ccccc3O)CC2)c2[nH]c3ccccc3c21,2600,11.6
CC(C)NCCCNc1c2ccccc2[n+](C)c2c1[nH]c1ccccc12,3000,11.5
CN(C)CCNc1c2ccccc2[n+](C)c2c1[nH]c1ccccc12,5500,11.6
CCN(CC)CCNc1c2ccccc2[n+](C)c2c1[nH]c1ccccc12,2800,11.6
C[n+]1c2ccccc2c(Nc2cccnc2)c2[nH]c3ccccc3c21,2600,10.3
